Test results as given in patent publication US20240269136A1, “EGFR INHIBITOR AND PERK ACTIVATOR IN COMBINATION THERAPY AND THEIR USE FOR TREATING CANCER” (Genentech, Inc., priority 2021, published 2024).
Like-named read-outs stand apart in the source and are kept apart here.

System: PC9 cells
Assay: CellTiter-Glo Luminescent Cell Viability Assay, PC9 cells, EGFR inhibitors and PERK activators alone and in combination
Assay type: cell-based
Experimental: PC9 cells were seeded in replicates in 96-well plates and allowed to attach overnight. The following day cells were treated with the indicated compounds or compound combinations at the indicated concentrations. Cell survival was measured 72 h post-treatment using CellTiter-Glo Luminescent Cell Viability Assay (Promega, G7572). Quantification of the fold decrease in cell viability was determined for single agent activity and for combinations relative to the DMSO-treated control (as shown in Table 1A and 1B). Mean (u) and standard deviation (o) was determined for biological triplicates using Microsoft Excel.

[1] = combination: CCT-020312 2 μM + EGFRi 0.1 μM, PC9, 72 h, relative to DMSO
[2] = combination: CCT-020312 2 μM + EGFRi 1 μM, PC9, 72 h, relative to DMSO
[3] = combination: DHBDC 50 μM + EGFRi 0.1 μM, PC9, 72 h, relative to DMSO
[4] = combination: DHBDC 50 μM + EGFRi 1 μM, PC9, 72 h, relative to DMSO
[5] = combination: IPA 1 μM + EGFRi 0.1 μM, PC9, 72 h, relative to DMSO
[6] = combination: IPA 1 μM + EGFRi 1 μM, PC9, 72 h, relative to DMSO
[7] = combination: MK-28 20 μM + EGFRi 0.1 μM, PC9, 72 h, relative to DMSO
[8] = combination: MK-28 20 μM + EGFRi 1 μM, PC9, 72 h, relative to DMSO
[9] = single agent, EGFRi 0.1 μM, PC9, 72 h, relative to DMSO, mean of biological triplicates
[10] = single agent, EGFRi 1 μM, PC9, 72 h, relative to DMSO, mean of biological triplicates
[11] = combination: CCT-020312 2 μM + EGFRi 0.01 μM, PC9, 72 h, relative to DMSO
[12] = combination: DHBDC 50 μM + EGFRi 0.01 μM, PC9, 72 h, relative to DMSO
[13] = combination: IPA 1 μM + EGFRi 0.01 μM, PC9, 72 h, relative to DMSO
[14] = combination: MK-28 20 μM + EGFRi 0.01 μM, PC9, 72 h, relative to DMSO
[15] = single agent, EGFRi 0.01 μM, PC9, 72 h, relative to DMSO, mean of biological triplicates

C=CC(=O)Nc1cc(Nc2nccc(-c3cn(C)c4ccccc34)n2)c(OC)cc1N(C)CCN(C)C [Osimertinib, N-[2-[2-(dimethylamino)ethyl-methyl-amino]-4-methoxy-5-[[4-(1-methylindol-3-yl)pyrimidin-2-yl]amino]phenyl]prop-2-enamide]
CCT-020312 + High EGFRi, fold decrease in cell viability (μ): 836.5 fold
CCT-020312 + Low EGFRi, fold decrease in cell viability (μ): 38.4 fold
DHBDC + High EGFRi, fold decrease in cell viability (μ): 64.2 fold
DHBDC + Low EGFRi, fold decrease in cell viability (μ): 13.6 fold
High EGFRi, fold decrease in cell viability (μ): 12.6 fold
IPA + High EGFRi, fold decrease in cell viability (μ): 67.3 fold
IPA + Low EGFRi, fold decrease in cell viability (μ): 9.9 fold
Low EGFRi, fold decrease in cell viability (μ): 2.1 fold
MK-28 + High EGFRi, fold decrease in cell viability (μ): 220.3 fold
MK-28 + Low EGFRI, fold decrease in cell viability (μ): 72.7 fold

C=CC(=O)Nc1cccc(Nc2nc(Nc3ccc(N4CCN(C(C)=O)CC4)cc3OC)ncc2C(F)(F)F)c1 [Rociletinib, N-[3-[[2-[4-(4-acetylpiperazin-1-yl)-2-methoxy-anilino]-5-(trifluoromethyl)pyrimidin-4-yl]amino]phenyl]prop-2-enamide]
CCT-020312 + Low EGFRi, fold decrease in cell viability (μ) [1]: 5.1 fold
CCT-020312 + High EGFRi, fold decrease in cell viability (μ) [2]: 446.1 fold
DHBDC + Low EGFRi, fold decrease in cell viability (μ) [3]: 5.3 fold
DHBDC + High EGFRi, fold decrease in cell viability (μ) [4]: 88.0 fold
IPA + Low EGFRi, fold decrease in cell viability (μ) [5]: 6.4 fold
IPA + High EGFRi, fold decrease in cell viability (μ) [6]: 142.3 fold
MK-28 + Low EGFRI, fold decrease in cell viability (μ) [7]: 49.2 fold
MK-28 + High EGFRi, fold decrease in cell viability (μ) [8]: 268.9 fold
Low EGFRi, fold decrease in cell viability (μ) [9]: 1.3 fold
High EGFRi, fold decrease in cell viability (μ) [10]: 7.0 fold

Cc1cc(C(=O)Nc2nc3cccc(Cl)c3n2[C@@H]2CCCCN(C(=O)/C=C/CN(C)C)C2)ccn1 (racemic) [Nazartinib, N-[7-chloro-1-[rac-(3R)-1-[rac-(E)-4-(dimethylamino)but-2-enoyl]azepan-3-yl]benzimidazol-2-yl]-2-methyl-pyridine-4-carboxamide]
CCT-020312 + Low EGFRi, fold decrease in cell viability (μ) [1]: 255.4 fold
CCT-020312 + High EGFRi, fold decrease in cell viability (μ) [2]: 1514.1 fold
DHBDC + Low EGFRi, fold decrease in cell viability (μ) [3]: 25.8 fold
DHBDC + High EGFRi, fold decrease in cell viability (μ) [4]: 53.6 fold
IPA + Low EGFRi, fold decrease in cell viability (μ) [5]: 44.0 fold
IPA + High EGFRi, fold decrease in cell viability (μ) [6]: 205.5 fold
MK-28 + Low EGFRI, fold decrease in cell viability (μ) [7]: 130.5 fold
MK-28 + High EGFRi, fold decrease in cell viability (μ) [8]: 421.8 fold
Low EGFRi, fold decrease in cell viability (μ) [9]: 6.3 fold
High EGFRi, fold decrease in cell viability (μ) [10]: 15.0 fold

C=CC(=O)Nc1cccc(Oc2nc(Nc3ccc(N4CCN(C)CC4)cc3OC)ncc2Cl)c1 [WZ-4002, N-[3-[5-chloro-2-[2-methoxy-4-(4-methylpiperazin-1-yl)anilino]pyrimidin-4-yl]oxyphenyl]prop-2-enamide]
CCT-020312 + Low EGFRi, fold decrease in cell viability (μ) [1]: 49.8 fold
CCT-020312 + High EGFRi, fold decrease in cell viability (μ) [2]: 1482.6 fold
DHBDC + Low EGFRi, fold decrease in cell viability (μ) [3]: 13.2 fold
DHBDC + High EGFRi, fold decrease in cell viability (μ) [4]: 52.0 fold
IPA + Low EGFRi, fold decrease in cell viability (μ) [5]: 10.3 fold
IPA + High EGFRi, fold decrease in cell viability (μ) [6]: 106.0 fold
MK-28 + Low EGFRI, fold decrease in cell viability (μ) [7]: 120.3 fold
MK-28 + High EGFRi, fold decrease in cell viability (μ) [8]: 422.1 fold
Low EGFRi, fold decrease in cell viability (μ) [9]: 2.6 fold
High EGFRi, fold decrease in cell viability (μ) [10]: 13.5 fold

COc1cc2ncnc(Nc3ccc(F)c(Cl)c3)c2cc1NC(=O)/C=C/CN1CCCCC1 [Dacomitinib, (E)-N-[4-(3-chloro-4-fluoro-anilino)-7-methoxy-quinazolin-6-yl]-4-(1-piperidyl)but-2-enamide]
CCT-020312 + Low EGFRi, fold decrease in cell viability (μ) [11]: 731.1 fold
CCT-020312 + High EGFRi, fold decrease in cell viability (μ) [1]: 1325.3 fold
DHBDC + Low EGFRi, fold decrease in cell viability (μ) [12]: 66.5 fold
DHBDC + High EGFRi, fold decrease in cell viability (μ) [3]: 85.2 fold
IPA + Low EGFRi, fold decrease in cell viability (μ) [13]: 79.2 fold
IPA + High EGFRi, fold decrease in cell viability (μ) [5]: 275.2 fold
MK-28 + Low EGFRI, fold decrease in cell viability (μ) [14]: 170.8 fold
MK-28 + High EGFRi, fold decrease in cell viability (μ) [7]: 241.8 fold
Low EGFRi, fold decrease in cell viability (μ) [15]: 13.6 fold
High EGFRi, fold decrease in cell viability (μ) [9]: 14.5 fold

C=CC(=O)N1CCC(Oc2cc3c(Nc4ccc(Cl)c(Cl)c4F)ncnc3cc2OC)CC1 [Poziotinib, 1-[4-[4-(3,4-dichloro-2-fluoro-anilino)-7-methoxy-quinazolin-6-yl]oxy-1-piperidyl]prop-2-en-1-one]
CCT-020312 + Low EGFRi, fold decrease in cell viability (μ) [11]: 716.9 fold
CCT-020312 + High EGFRi, fold decrease in cell viability (μ) [1]: 1168.4 fold
DHBDC + Low EGFRi, fold decrease in cell viability (μ) [12]: 74.1 fold
DHBDC + High EGFRi, fold decrease in cell viability (μ) [3]: 88.4 fold
IPA + Low EGFRi, fold decrease in cell viability (μ) [13]: 107.6 fold
IPA + High EGFRi, fold decrease in cell viability (μ) [5]: 132.4 fold
MK-28 + Low EGFRI, fold decrease in cell viability (μ) [14]: 181.5 fold
MK-28 + High EGFRi, fold decrease in cell viability (μ) [7]: 295.2 fold
Low EGFRi, fold decrease in cell viability (μ) [15]: 14.3 fold
High EGFRi, fold decrease in cell viability (μ) [9]: 15.4 fold

C=CC(=O)N[C@H]1C=C(C)c2c(-c3cnc4ccccc4c3)c3c(N)ncnc3n2C1 (racemic) [TAS-6417, N-[rac-(8S)-4-amino-6-methyl-5-(3-quinolyl)-8,9-dihydropyrimido[5,4-b]indolizin-8-yl]prop-2-enamide]
CCT-020312 + Low EGFRi, fold decrease in cell viability (μ) [11]: 505.3 fold
CCT-020312 + High EGFRi, fold decrease in cell viability (μ) [1]: 1235.6 fold
DHBDC + Low EGFRi, fold decrease in cell viability (μ) [12]: 50.9 fold
DHBDC + High EGFRi, fold decrease in cell viability (μ) [3]: 71.8 fold
IPA + Low EGFRi, fold decrease in cell viability (μ) [13]: 72.3 fold
IPA + High EGFRi, fold decrease in cell viability (μ) [5]: 89.5 fold
MK-28 + Low EGFRI, fold decrease in cell viability (μ) [14]: 158.3 fold
MK-28 + High EGFRi, fold decrease in cell viability (μ) [7]: 301.6 fold
Low EGFRi, fold decrease in cell viability (μ) [15]: 10.5 fold
High EGFRi, fold decrease in cell viability (μ) [9]: 13.6 fold
